System: hAAT
Assay: Serum hAAT protein levels in PiZ mice (ELISA)
Format: in vivo, human (expressed in PiZ mice)
Conditions: for Serum hAAT levels reduced: 6 month old female PiZ mice, single IV 8 mg/kg + 8 mg/kg MLP delivery polymer; for Serum hAAT normalized to Day 1 and control / Normalized serum hAAT levels: PiZ mice; for Normalized serum hAAT levels: normalized to day 1 and saline control
Procedure: Human AAT protein levels in serum were monitored for 29 days. At the indicated times, blood samples were collected and assayed for hAAT by ELISA. Day 1 samples were collected prior to trigger administration. For mRNA analysis, 3-4 mice were euthanized at each of days 3, 8, 15, 22, and 29. For euthanized mice, cardiac stick were performed for serum isolation for AAT ELISA (200 μl serum). Half of the left lateral liver lobe was collected and snap-freeze in liquid nitrogen for RNA isolation. The remainder of the left lobes were embedded into paraffin blocks for PAS-D staining with hematoxylin as counter-stain. Serum hAAT levels in mice given AAT Duplex Pair SEQ ID NO: 5/6 were 95% reduced on day 8 and remained reduced to day 29, at which time they were 79% reduced. Mice given AAT Duplex Pair SEQ ID NO: 5/6 were euthanized at either day 3, 8, 15, 22 or 29. Mice given saline or Luciferase siRNA control (SEQ ID 7/8) were euthanized on day 29. Levels of hAAT mRNA in the livers were measured by RT-qPCR. The hAAT mRNA in mice given AAT Duplex Pair SEQ ID NO: 5/6 was reduced by 97% on day 3 and remained reduced on day 29, at which time levels were 56% reduced. The size of the globules and the area of the liver covered by globules was digitally quantitated from liver specimens stained with PAS-D. Duplex Pair SEQ ID NO: 5/6 treated mice had 70% smaller globules at day 15 and 62% smaller globules at day 29. The area of the liver covered with globules was 83% reduced on day 15 and 72% reduced on day 29 (FIG. 5).

Duplex Pair SEQ ID NO: 5/6: double-stranded AAT RNAi agent: modified antisense strand SEQ ID NO: 5 annealed to Chol-TEG sense strand SEQ ID NO: 6 (antisense TGGAACUUGGUGAUGAUAUTT; sense UAUAUAUCAUCACCAAGUUCCAT; Chol-TEG on sense strand; chemical modifications; antisense strand of dsRNA; modified_base 7 /mod_base = “2′-3′ seco corresponding nucleotide”; modified_base 2,4,6,8,10,12,14,16,18 /mod_base = “2′-deoxy-2′-fluoro corresponding nucleoside”; modified_base 3,5,9,11,13,15,17,19 /mod_base = “2′-O-methyl corresponding nucleoside”; modified_base 21 /mod_base = “5′-phosphorothioate corresponding nucleotide”; sense strand of dsRNA; modified_base 2 /mod_base = “2′-hydroxy corresponding nucleoside”; modified_base 4,6,8,10,12,14,16,18,20,22 /mod_base = “2′-deoxy-2′-fluoro corresponding nucleoside”; …)
Serum hAAT levels reduced (day 8): 95% | Serum hAAT levels reduced (day 29): 79% | Serum hAAT normalized to Day 1 and control (single IV 0.5 mg/kg + 4 mg/kg MLP delivery polymer, Day 1): 1.00 | Serum hAAT normalized to Day 1 and control (single IV 0.5 mg/kg + 4 mg/kg MLP delivery polymer, Day 3): 0.27 ± 0.02 | Serum hAAT normalized to Day 1 and control (single IV 0.5 mg/kg + 4 mg/kg MLP delivery polymer, Day 8): 0.29 ± 0.09 | Serum hAAT normalized to Day 1 and control (single IV 0.5 mg/kg + 4 mg/kg MLP delivery polymer, Day 15): 0.43 ± 0.01 | Serum hAAT normalized to Day 1 and control (single IV 0.5 mg/kg + 4 mg/kg MLP delivery polymer, Day 22): 0.73 ± 0.03 | Serum hAAT normalized to Day 1 and control (single IV 0.5 mg/kg + 4 mg/kg MLP delivery polymer, Day 29): 0.66 ± 0.05 | Serum hAAT normalized to Day 1 and control (single IV 0.5 mg/kg + 4 mg/kg MLP delivery polymer, Day 35): 0.97 ± 0.02 | Serum hAAT normalized to Day 1 and control (single IV 0.5 mg/kg + 4 mg/kg MLP delivery polymer, Day −3): 0.64 ± 0.10 | Serum hAAT normalized to Day 1 and control (single IV 0.5 mg/kg + 8 mg/kg MLP delivery polymer, Day 1): 1.00 | Serum hAAT normalized to Day 1 and control (single IV 0.5 mg/kg + 8 mg/kg MLP delivery polymer, Day 3): 0.20 ± 0.02 | Serum hAAT normalized to Day 1 and control (single IV 0.5 mg/kg + 8 mg/kg MLP delivery polymer, Day 8): 0.10 ± 0.03 | Serum hAAT normalized to Day 1 and control (single IV 0.5 mg/kg + 8 mg/kg MLP delivery polymer, Day 15): 0.19 ± 0.05 | Serum hAAT normalized to Day 1 and control (single IV 0.5 mg/kg + 8 mg/kg MLP delivery polymer, Day 22): 0.55 ± 0.05 | Serum hAAT normalized to Day 1 and control (single IV 0.5 mg/kg + 8 mg/kg MLP delivery polymer, Day 29): 0.49 ± 0.09 | Serum hAAT normalized to Day 1 and control (single IV 0.5 mg/kg + 8 mg/kg MLP delivery polymer, Day 35): 0.71 ± 0.09 | Serum hAAT normalized to Day 1 and control (single IV 0.5 mg/kg + 8 mg/kg MLP delivery polymer, Day −3): 0.71 ± 0.03 | Normalized serum hAAT levels (single IV 2 mg/kg + 2 mg/kg MLP, day 1): 1.00 | Normalized serum hAAT levels (single IV 2 mg/kg + 2 mg/kg MLP, day 8): 0.32 ± 0.24 | Normalized serum hAAT levels (single IV 2 mg/kg + 2 mg/kg MLP, day 15): 0.88 ± 0.13 | Normalized serum hAAT levels (single IV 2 mg/kg + 2 mg/kg MLP, day 20): 0.89 ± 0.18 | Normalized serum hAAT levels (single IV 2 mg/kg + 2 mg/kg MLP, day 29): 1.01 ± 0.23 | Normalized serum hAAT levels (single IV 2 mg/kg + 2 mg/kg MLP, day 36): 1.02 ± 0.15 | Normalized serum hAAT levels (single IV 2 mg/kg + 2 mg/kg MLP, day −7): 0.91 ± 0.11 | Serum hAAT normalized to Day 1 and control (single IV 2 mg/kg + 4 mg/kg MLP delivery polymer, Day 1): 1.00 | Serum hAAT normalized to Day 1 and control (single IV 2 mg/kg + 4 mg/kg MLP delivery polymer, Day 3): 0.25 ± 0.03 | Serum hAAT normalized to Day 1 and control (single IV 2 mg/kg + 4 mg/kg MLP delivery polymer, Day 8): 0.21 ± 0.07 | Serum hAAT normalized to Day 1 and control (single IV 2 mg/kg + 4 mg/kg MLP delivery polymer, Day 15): 0.32 ± 0.06 | Serum hAAT normalized to Day 1 and control (single IV 2 mg/kg + 4 mg/kg MLP delivery polymer, Day 22): 0.71 ± 0.14 | Serum hAAT normalized to Day 1 and control (single IV 2 mg/kg + 4 mg/kg MLP delivery polymer, Day 29): 0.66 ± 0.06 | Serum hAAT normalized to Day 1 and control (single IV 2 mg/kg + 4 mg/kg MLP delivery polymer, Day 35): 0.70 ± 0.09 | Serum hAAT normalized to Day 1 and control (single IV 2 mg/kg + 4 mg/kg MLP delivery polymer, Day −3): 0.67 ± 0.02 | Normalized serum hAAT levels (single IV 2 mg/kg + 4 mg/kg MLP, day 1): 1.00 | Normalized serum hAAT levels (single IV 2 mg/kg + 4 mg/kg MLP, day 8): 0.07 ± 0.04 | Normalized serum hAAT levels (single IV 2 mg/kg + 4 mg/kg MLP, day 15): 0.50 ± 0.19 | Normalized serum hAAT levels (single IV 2 mg/kg + 4 mg/kg MLP, day 20): 0.67 ± 0.12 | Normalized serum hAAT levels (single IV 2 mg/kg + 4 mg/kg MLP, day 29): 0.89 ± 0.06 | Normalized serum hAAT levels (single IV 2 mg/kg + 4 mg/kg MLP, day 36): 0.94 ± 0.17 | Normalized serum hAAT levels (single IV 2 mg/kg + 4 mg/kg MLP, day −7): 0.90 ± 0.15 | Serum hAAT normalized to Day 1 and control (single IV 2 mg/kg + 8 mg/kg MLP delivery polymer, Day 1): 1.00 | Serum hAAT normalized to Day 1 and control (single IV 2 mg/kg + 8 mg/kg MLP delivery polymer, Day 3): 0.17 ± 0.03 | Serum hAAT normalized to Day 1 and control (single IV 2 mg/kg + 8 mg/kg MLP delivery polymer, Day 8): 0.05 ± 0.00 | Serum hAAT normalized to Day 1 and control (single IV 2 mg/kg + 8 mg/kg MLP delivery polymer, Day 15): 0.10 ± 0.03 | Serum hAAT normalized to Day 1 and control (single IV 2 mg/kg + 8 mg/kg MLP delivery polymer, Day 22): 0.22 ± 0.03 | Serum hAAT normalized to Day 1 and control (single IV 2 mg/kg + 8 mg/kg MLP delivery polymer, Day 29): 0.40 ± 0.06 | Serum hAAT normalized to Day 1 and control (single IV 2 mg/kg + 8 mg/kg MLP delivery polymer, Day 35): 0.63 ± 0.04 | Serum hAAT normalized to Day 1 and control (single IV 2 mg/kg + 8 mg/kg MLP delivery polymer, Day −3): 0.53 ± 0.08 | Normalized serum hAAT levels (single IV 4 mg/kg + 2 mg/kg MLP, day 1): 1.00 | Normalized serum hAAT levels (single IV 4 mg/kg + 2 mg/kg MLP, day 8): 0.08 ± 0.03 | Normalized serum hAAT levels (single IV 4 mg/kg + 2 mg/kg MLP, day 15): 0.68 ± 0.13 | Normalized serum hAAT levels (single IV 4 mg/kg + 2 mg/kg MLP, day 20): 0.90 ± 0.15 | Normalized serum hAAT levels (single IV 4 mg/kg + 2 mg/kg MLP, day 29): 1.07 ± 0.07 | Normalized serum hAAT levels (single IV 4 mg/kg + 2 mg/kg MLP, day 36): 1.01 ± 0.08 | Normalized serum hAAT levels (single IV 4 mg/kg + 2 mg/kg MLP, day −7): 1.27 ± 0.07 | Serum hAAT normalized to Day 1 and control (single IV 4 mg/kg + 4 mg/kg MLP delivery polymer, Day 1): 1.00 | Serum hAAT normalized to Day 1 and control (single IV 4 mg/kg + 4 mg/kg MLP delivery polymer, Day 3): 0.27 ± 0.03 | Serum hAAT normalized to Day 1 and control (single IV 4 mg/kg + 4 mg/kg MLP delivery polymer, Day 8): 0.13 ± 0.02 | Serum hAAT normalized to Day 1 and control (single IV 4 mg/kg + 4 mg/kg MLP delivery polymer, Day 15): 0.23 ± 0.07 | Serum hAAT normalized to Day 1 and control (single IV 4 mg/kg + 4 mg/kg MLP delivery polymer, Day 22): 0.58 ± 0.09 | Serum hAAT normalized to Day 1 and control (single IV 4 mg/kg + 4 mg/kg MLP delivery polymer, Day 29): 0.60 ± 0.08 | Serum hAAT normalized to Day 1 and control (single IV 4 mg/kg + 4 mg/kg MLP delivery polymer, Day 35): 0.92 ± 0.22 | Serum hAAT normalized to Day 1 and control (single IV 4 mg/kg + 4 mg/kg MLP delivery polymer, Day −3): 0.70 ± 0.17
